This passage reports Ki results from BindingDB's records for doi:10.1016/j.chembiol.2011.05.012 (University of Bern, 2011).

“And” between values parts separate entries of the source, which are not always exact repeats. Equal values may be shown once.

For assay [1], the target named is Cannabinoid receptor 2 (Homo sapiens, UniProt P34972). The assay is described as follows: Binding Assay. An excerpt:
(§1) Binding assay with hCB1 and hCB2 receptors.

Assay [2] has as its target Cannabinoid receptor 1 (Homo sapiens, UniProt P21554). The experiment in a line: Binding Assay.
From the text: as §1

Chain of Cannabinoid receptor 2 (P34972 whole entry): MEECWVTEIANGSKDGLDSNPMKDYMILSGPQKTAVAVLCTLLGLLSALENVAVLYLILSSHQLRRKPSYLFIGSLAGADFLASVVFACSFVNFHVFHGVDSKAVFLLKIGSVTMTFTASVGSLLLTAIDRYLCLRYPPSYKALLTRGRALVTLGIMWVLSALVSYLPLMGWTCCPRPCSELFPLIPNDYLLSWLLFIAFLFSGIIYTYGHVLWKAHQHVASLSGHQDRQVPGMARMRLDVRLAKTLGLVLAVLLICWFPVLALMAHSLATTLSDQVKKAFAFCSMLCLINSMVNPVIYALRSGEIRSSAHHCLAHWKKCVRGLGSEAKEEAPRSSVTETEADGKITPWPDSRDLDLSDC
Chain of Cannabinoid receptor 1 (P21554 whole entry): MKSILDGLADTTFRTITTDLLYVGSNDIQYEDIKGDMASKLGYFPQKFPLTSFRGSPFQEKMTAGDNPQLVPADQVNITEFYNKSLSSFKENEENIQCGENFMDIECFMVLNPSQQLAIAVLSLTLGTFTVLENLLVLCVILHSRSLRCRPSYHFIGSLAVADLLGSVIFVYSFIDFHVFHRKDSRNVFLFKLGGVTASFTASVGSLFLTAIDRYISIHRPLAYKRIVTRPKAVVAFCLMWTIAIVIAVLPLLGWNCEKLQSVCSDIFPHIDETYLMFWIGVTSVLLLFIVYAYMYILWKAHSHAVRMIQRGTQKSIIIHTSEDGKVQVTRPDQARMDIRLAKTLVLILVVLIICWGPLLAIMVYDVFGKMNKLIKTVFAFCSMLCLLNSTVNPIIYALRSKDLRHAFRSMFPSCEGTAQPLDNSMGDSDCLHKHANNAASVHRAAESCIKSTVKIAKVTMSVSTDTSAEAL

The Ki is a measure of affinity in units of concentration, obtained from inhibition or displacement. Low readings indicate higher affinity, high ones lower affinity. As for `CCCc1ccc(O)c(-c2ccc(O)c(CCC)c2)c1`, the Ki in assay [1] is 1300 nM; in assay [2] it was more than 5000 nM.
For the molecule `CCCc1ccc(O)c(-c2ccc(OC)c(CCC)c2)c1`, the Ki was 74 nM in assay [1] and more than 2000 nM in assay [2].
On to `C=CCc1ccc(O)c(-c2cc(CC=C)ccc2O)c1` [2-(2-hydroxy-5-prop-2-enylphenyl)-4-prop-2-enylphenol], for which the Ki in assay [1] is more than 2000 nM.
In assay [1], `CCCCC/C=C/C/C=C/C/C=C/C/C=C/CCCC(=O)OC(CO)CO` [2-Arachidonoylglycerol, 2-AG] showed a Ki of 892 nM.
`C=CCc1ccc(O)c(-c2ccc(O)c(CC=C)c2)c1` [3',5-diallylbiphenyl-2,4'-diol] came in with a Ki in assay [1] of 1760 nM.
For the molecule `C=CCc1ccc(O)c(-c2ccc(OC)c(/C=C/C)c2)c1` [Magreth-3a], the Ki in assay [1] is 40.8 nM and 59.1 nM; in assay [2], more than 5000 nM.
For the molecule `C=CCc1ccc(O)c(-c2ccc(O)c(/C=C/C)c2)c1` [Magreth-4], the Ki in assay [1] is 1760 nM; in assay [2] it was more than 5000 nM.
As to `C=CCc1cc(-c2cc(CC(C)Br)ccc2O)ccc1OC` (stereo unspecified) [Magreth-11a], the Ki in assay [1] was 1080 nM; in assay [2], more than 5000 nM.
Turning to `C=CCc1ccc(O)c(-c2ccc(OC)c(CC(C)Br)c2)c1` (stereo unspecified) [Magreth-11b], the Ki is 84 nM in assay [1] and 860 nM in assay [2].
Turning to `COc1ccc(-c2cc(CC(C)Br)ccc2O)cc1CC(C)Br` (stereo unspecified) [Magreth-11c], the Ki in assay [1] was 427 nM; in assay [2], more than 5000 nM.
For the molecule `C=CCc1cc(-c2cc(CC(C)Br)ccc2O)ccc1O` (stereo unspecified) [Magreth-12a], the Ki in assay [1] is 1260 nM; in assay [2], more than 5000 nM.
The matching figures for `CC(Br)Cc1ccc(O)c(-c2ccc(O)c(CC(C)Br)c2)c1` (stereo unspecified) [Magreth-12b]: 680 nM and more than 5000 nM.
In the case of `C=CCc1ccc(O)c(-c2ccc(OC)c(CC=C)c2)c1` [Magreth-14a], the Ki in assay [1] is 43.9 nM and 138 nM; in assay [2] it was 790 nM.
`C=CCc1ccc(OCC)c(-c2ccc(O)c(CC=C)c2)c1` [Magreth-16a]: the Ki in assay [1] came out at 51 nM.
`C=CCc1ccc(O)c(-c2ccc(OCC)c(CC=C)c2)c1` [Magreth-16b]: the Ki was determined as 40 nM in assay [1] and 970 nM in assay [2].
Take `C=CCc1ccc(OCCC)c(-c2ccc(O)c(CC=C)c2)c1` [Magreth-17a]: the results for the Ki in assay [1] and in assay [2] were 57 nM and more than 5000 nM, respectively.
With `C=CCc1ccc(O)c(-c2ccc(OCCC)c(CC=C)c2)c1` [Magreth-17b], the Ki in assay [1] is 46 nM; in assay [2], more than 5000 nM.
For the molecule `C=CCc1ccc(OCCCCC)c(-c2ccc(O)c(CC=C)c2)c1` [Magreth-18a], the Ki in assay [1] was 102 nM; in assay [2], more than 5000 nM.
Consider `C=CCc1ccc(O)c(-c2ccc(OCCCCC)c(CC=C)c2)c1` [Magreth-18b], for which the values for the Ki in assay [1] and in assay [2] were more than 3000 nM and more than 5000 nM, respectively.
Turning to `C=CCc1ccc(OCC)c(-c2ccc(OCC)c(CC=C)c2)c1` [Magreth-19], the Ki was 134 nM in assay [1] and more than 3000 nM in assay [2].
